Measurements from patent publication US8569274B2, “Progesterone antagonist and selective progesterone modulator in the treatment of excessive uterine bleeding” (Preglem S.A., priority 2007, dated 2013).

Assays:
Format in all cases: in vivo
uterine bleeding [1] = assay: Case: person with Acute Lymphotic Leukemia, thrombocytopenia and uterine bleeding, oral treatment
Experimental: A post-pubertal person is consulting for fever, infections, uterine bleeding, petechia and dyspnea. Blood test identifies anemia (Hb 7.8 g/dL), normal leucocyte count (WBC 8657 cells/μL) and thrombocytopenia (platelets: 13.476 cells/mm^3). […] A diagnosis of Acute Lymphotic Leukemia is confirmed. The patient undergoes blood and platelet transfusion to correct for anemia and coagulation disorder. On the same day, they start taking orally 10 mg/day of CDB-2914. […] On that day, Hb is 9.9 g/dL; WBC 6345 cells/μL; and platelet count is 42 000 cells/mm^3. They continue taking orally 10 mg/day of CDB2914 for controlling abnormal uterine bleeding. […] After 3 months, they achieve remission, Hb is 13.1 g/dL; leucocyte count is normal, platelet count is 176 000 cells/mm^3. Bone marrow biopsy confirmed normalization.

uterine bleeding [2] = assay: Case: person with stage III Hodgkin disease, prevention of uterine bleeding during chemotherapy and irradiation; details: 10 mg/day orally, started before chemotherapy (MOPP) and irradiation
Excerpt: A person is consulting for pneumonia. They report a recent history of night sweats and weight loss. […] The diagnosis is a stage III of Hodgkin disease. Their condition indicates chemotherapy (MOPP) and extended irradiation. The main risk of the proposed therapy is bone marrow suppression. This is life-threatening by exposing the patient to severe infection and septicemia, but it is also associated with severe thrombopenia and diffuse bleeding including uterine bleeding. In order to prevent uterine bleeding, before initiating specific treatment for their Hodgkin disease, they are orally administered 10 mg/day of CDB-2914. Following initiation of chemotherapy and irradiation, severe bone marrow suppression is recorded and the patient is admitted in aseptic unit. […] CBD2914 administration is maintained as long as coagulation parameters are not normalized.

uterine bleeding [3] = assay: Case: person on anticoagulant therapy with menorrhagia, oral treatment
Experimental: A moderate smoker with a BMI at 32 is treated with anticoagulant therapy for an episode of pulmonary embolism resulting from a deep venous thrombosis in a leg. Despite effort to adapt their anticoagulation therapy, their menstruations are heavy (menorrhagia) and last for up to two weeks. Their Hb is at 9.2 gr/dL. […] Their thrombo-embolic condition precludes any therapy with oestrogens or progestins. Given, the absence of negative metabolic and pro-thrombotic effect of SPRM, they are orally administered 25 mg/day of Proellex® (CDB-4124). […] Their Hb progressively returned to normal (>12 gd/dL).

Row | SMILES | uterine bleeding during continued treatment (uterine bleeding [1]; 10 mg/day orally, 3 months, several episodes of thrombopenia and chemotherapy cycles, except for a few spotting) | time following initiation of treatment until uterine bleeding is stopped (uterine bleeding [1]; 10 mg/day orally, blood and platelet transfusion on the same day) | menstrual bleeding after treatment is stopped (uterine bleeding [1]; after 3 months, remission) | uterine bleeding despite severe thrombopenia (uterine bleeding [2]) | uterine bleeding after start of treatment (uterine bleeding [3]; 25 mg/day orally) | uterine bleeding during the 12 weeks of anticoagulation therapy (uterine bleeding [3]; 25 mg/day orally) | Hb (uterine bleeding [3]; 25 mg/day orally, 9.2 gr/dL before treatment, progressively returned to normal) | menstruations after treatment is stopped (uterine bleeding [3]; after anticoagulation therapy is stopped)
1 | CC(=O)O[C@]1(C(C)=O)CC[C@H]2[C@@H]3CCC4=CC(=O)CCC4=C3[C@@H](c3ccc(N(C)C)cc3)C[C@@]21C [CDB-2914] | remains in amenorrhea | 5 days | regular, normal menstrual bleeding are restored | remains in amenorrhea | – | – | – | –
2 | COCC(=O)[C@@]1(OC(C)=O)CC[C@H]2[C@@H]3CCC4=CC(=O)CCC4=C3[C@@H](c3ccc(N(C)C)cc3)C[C@@]21C [Proellex, 17[alpha]-acetoxy-21-methoxy-11β-[4-N,N-dimethylaminophenyl]-19-norpregna-4,9-diene-3,20-dione] | – | – | – | – | stopped after a few days | remain amenorrheic | > 12 gd/dL | resumed normal menstruations
